Series [1] can be described thus: Phase 1 trial: diarrhea induced by the isothiazole derivative. The conditions noted are these: almost all subjects at doses greater than 160 mg/day, within the first few days. The series is classed as in vivo, human. Here is the method: Susceptible subjects are encouraged to adhere to a daily schedule of prophylactic anti-diarrheal agents, such as Loperamide, Octreotide, Loperamide, Tamoxifen, a bulking agent, or an anti-estrogen. To treat the diarrhea in these patients, a therapeutically effective amount of 3-(4-Bromo-2,6-difluoro-benzyloxy)-5-[3-(4-pyrrolidin-1-yl-butyl)-ureido]-isothiazole-4-carboxylic acid amide HCl is administered to a patient in need of such therapy, prior to, simultaneously or sequentially with a therapeutically effective amount of Loperamide, Octreotide, Loperamide, Tamoxifen, a bulking agent, or an anti-estrogen.

The conditions of series [2]: cited from earlier work.
The conditions of series [3]: patients who experienced this side-effect during a previous course of chemotherapy; Cascinu et al. 1994; cited from earlier work.
In series [4] the test system is MCF-7 breast cancer cells. The conditions noted are these: Otto et al. 1996; cited from earlier work.

The values below come from patent US20050245456A1, “Combination therapy to prevent and treat diarrhea induced by cancer treatment” (Pfizer Inc, priority 2004, published 2005).

Take `NC(=O)c1c(OCc2c(F)cc(Br)cc2F)nsc1NC(=O)NCCCCN1CCCC1` [3-(4-Bromo-2,6-difluoro-benzyloxy)-5-[3-(4-pyrrolidin-1-yl-butyl)-ureido]-isothiazole-4-carboxylic acid amide]: the “diarrhea developed by subjects (CTC grade)” value in series [1] is listed as “Grade 1 or 2 diarrhea”.
As to `C[C@@H](O)[C@@H]1NC(=O)[C@H](CCCCN)NC(=O)[C@@H](Cc2c[nH]c3ccccc23)NC(=O)[C@H](Cc2ccccc2)NC(=O)[C@@H](NC(=O)[C@H](N)Cc2ccccc2)CSSC[C@@H](C(=O)N[C@H](CO)[C@@H](C)O)NC1=O` [Octreotide], in series [2] (11 patients with colorectal cancer, Kennedy et al. 1990), the “treatment of diarrhea after chemotherapy with 5-fluorouracil” value is “encouraging results”. Besides, the “efficacy versus Loperamide in therapy of 5-fluorouracil-induced diarrhea” value in series [2] (randomized trial, Cascinu et al. 1993) is recorded as “more effective than Loperamide”. The “prevention of diarrhea associated with cisplatin” value in series [3] is recorded as “active in preventing diarrhea”.
As for `CC/C(=C(\c1ccccc1)c1ccc(OCCN(C)C)cc1)c1ccccc1` [Tamoxifen], the “effect on cell cycle progression” value in series [4] was “blocks cell cycle progression in G0/G1”.
